Assay results: ChEMBL document CHEMBL4261616, “Discovery of heterocyclic replacements for the coumarin core of anti-tubercular FadD32 inhibitors” (Bioorg Med Chem Lett, 2018)
≈ marks a conversion by molar mass, not a printed value.

Experiments:
[1] = molecular target: T1, Long-chain-fatty-acid--AMP ligase FadD32 (Mycobacterium tuberculosis (strain ATCC 25618 / H37Rv)) (UniProt O53580); assay: Inhibition of Mycobacterium tuberculosis H37Rv FadD32 assessed as reduction in bacterial viability after 6 days by resazurin dye based fluorescence assay
T1 sequence (whole entry): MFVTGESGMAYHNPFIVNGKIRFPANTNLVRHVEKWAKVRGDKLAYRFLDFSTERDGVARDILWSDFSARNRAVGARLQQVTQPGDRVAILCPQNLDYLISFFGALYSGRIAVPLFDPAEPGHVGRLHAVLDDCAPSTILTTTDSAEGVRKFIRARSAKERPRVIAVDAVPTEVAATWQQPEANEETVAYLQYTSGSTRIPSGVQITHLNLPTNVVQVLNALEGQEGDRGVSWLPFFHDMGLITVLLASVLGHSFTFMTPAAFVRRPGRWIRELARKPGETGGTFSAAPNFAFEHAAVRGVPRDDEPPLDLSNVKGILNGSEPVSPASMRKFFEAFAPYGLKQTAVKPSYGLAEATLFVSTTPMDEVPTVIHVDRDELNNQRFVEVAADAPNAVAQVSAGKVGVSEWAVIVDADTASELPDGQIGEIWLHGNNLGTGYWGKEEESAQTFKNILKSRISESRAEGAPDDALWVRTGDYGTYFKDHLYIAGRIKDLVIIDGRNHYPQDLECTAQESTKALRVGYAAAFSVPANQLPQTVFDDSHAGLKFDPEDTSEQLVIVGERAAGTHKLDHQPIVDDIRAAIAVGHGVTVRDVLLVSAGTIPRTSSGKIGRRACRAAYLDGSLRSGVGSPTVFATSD

[2] = Kinetic solubility of the compound at pH 7.4 by chemiluminescence nitrogen detection method; assay type: physicochemical; settings: buffer, read-out: Kinetic_solubility
[3] = Metabolic stability in mouse liver microsomes at 1 uM after 60 mins by UPLC-MS/MS analysis; assay type: ADME, microsome; settings: for remaining at 1 h, 1 µM: liver microsomes, read-out: Stability
[4] = Metabolic stability in human liver microsomes at 1 uM after 60 mins by UPLC-MS/MS analysis; assay type: ADME, microsome; settings: for remaining at 1 h, 1 µM: liver microsomes, read-out: Stability
HepG2 = assay: Cytotoxicity against human HepG2 cells after 48 hrs by CellTiter-Glo assay; assay type: cell-based; settings: HepG2, 48 h
[5] = Drug level treated with 4-(4-fluorophenyl)-5,7-dimethyl-6-(4-(morpholinomethyl)phenyl)-2H-chromen-2-one under basic condition after 18 hrs at room temperature in presence of morpholine; assay type: physicochemical
[6] = system: Mycobacterium tuberculosis; assay: Antimycobacterial activity against Mycobacterium tuberculosis; assay type: functional
[7] = Protein binding in mouse plasma a 5 uM after 5 hrs by UPLC-MS based rapid equilibrium dialysis method; assay type: ADME, cell-free
[8] = Protein binding in human plasma a 5 uM after 5 hrs by UPLC-MS based rapid equilibrium dialysis method; assay type: ADME, cell-free
[9] = Plasma clearance in mouse at 1 mg/kg, iv; assay type: ADME, organism-based
[10] = system: Mycobacterium tuberculosis; assay: Antimycobacterial activity against Mycobacterium tuberculosis H37Rv infected in C57BL/6J mouse assessed as log reduction in bacterial load in lungs up to 50 mg/kg, po qd via gavage up to day 8 post infection starting from day 1 post infection measured on day 9; assay type: functional
[11] = system: Mycobacterium tuberculosis; assay: Antimycobacterial activity against Mycobacterium tuberculosis H37Rv infected in C57BL/6J mouse assessed as reduction in bacterial load in lungs administered po qd via gavage up to day 8 post infection starting from day 1 post infection measured on day 9; assay type: functional, organism-based
[12] = system: Mycobacterium tuberculosis; assay: Antimycobacterial activity against Mycobacterium tuberculosis H37Rv infected in C57BL/6J mouse assessed as 2 log reduction in bacterial load in lungs administered po qd via gavage up to day 8 post infection starting from day 1 post infection measured on day 9; assay type: functional
Mus musculus = assay: Toxicity in C57BL/6J mouse infected with Mycobacterium tuberculosis H37Rv assessed as mortality up to 50 mg/kg, po qd via gavage up to day 8 post infection starting from day 1 post infection measured daily; assay type: organism-based; settings: in vivo

`Cc1cc2nc(C(=O)N3CCCC3)cc(-c3ccccc3Cl)c2c(C)c1-c1ccncc1` showed an MIC90 [1] of 5 µM (≈ 2.21 µg/mL) and a solubility kinetic [2] of 41 µM (≈ 18.1 µg/mL).

With `CCc1ccccc1CNc1ccnc2cc(C)c(-c3ccc(CN4CCOCC4)cc3)c(C)c12` the MIC90 [1] was 2.5 µM (≈ 1.16 µg/mL) and the solubility kinetic [2] was 59 µM (≈ 27.5 µg/mL).

With `Cc1cc2nc(C(C)(C)O)cc(-c3ccccc3Cl)c2c(C)c1-c1ccncc1` the MIC90 [1] was > 40 µM and the solubility kinetic [2] was 38 µM (≈ 15.3 µg/mL).

Compound `Cc1cc2nc(C(=O)NCCO)cc(-c3ccccc3Cl)c2c(C)c1-c1ccncc1` has an MIC90 [1] of 0.3 µM (≈ 0.13 µg/mL), a solubility kinetic [2] of 25 µM (≈ 10.8 µg/mL) and a remaining at 1 h, 1 µM [3] of 26.2%. For the same compound, the remaining at 1 h, 1 µM [4] was 8% and the IC50 (HepG2) was 100 µM.

With `Cc1cc2nccc(-c3ccccc3)c2c(C)c1-c1ccc(CN2CCOCC2)cc1` the MIC90 [1] was 0.45 µM (≈ 0.184 µg/mL).

`Cc1cc2nc(C(N)=O)cc(-c3ccccc3Cl)c2c(C)c1-c1ccncc1` gave an MIC90 [1] of 1.25 µM (≈ 0.485 µg/mL) and a solubility kinetic [2] of 8 µM (≈ 3.1 µg/mL).

For `Cc1cc2nccc(-c3ccccc3Cl)c2c(C)c1-c1ccc(CN2CCOCC2)cc1`, the MIC90 [1] was 0.3 µM (≈ 0.133 µg/mL).

`Cc1cc2nc(C(=O)N3CCNCC3)cc(-c3ccccc3Cl)c2c(C)c1-c1ccncc1` gave an MIC90 [1] of 10 µM (≈ 4.57 µg/mL).

Work on `COc1cccc(-c2ccnc3cc(C)c(-c4ccc(CN5CCOCC5)cc4)c(C)c23)c1Cl` yielded an MIC90 [1] of 10 µM (≈ 4.73 µg/mL) and a solubility kinetic [2] of 2 µM (≈ 0.946 µg/mL).

With `Cc1cc(O)c(/C(=C\C(=O)N2CCOCC2)c2ccc(F)cc2)c(C)c1-c1ccc(CN2CCOCC2)cc1` the Drug metabolism [5] was “Metabolite_Detected”.

Work on `Cc1cc2occ(-c3ccccc3)c2c(C)c1-c1ccc(CN2CCOCC2)cc1` yielded an MIC90 [1] of 2.5 µM (≈ 0.994 µg/mL).

In the case of `Cc1cc2[nH]c(=O)cc(-c3ccccc3)c2c(C)c1-c1ccc(CN2CCOCC2)cc1`, the MIC90 [1] is reported as > 40 µM.

`Cc1cc2nccc(-c3ccccc3C#N)c2c(C)c1-c1ccc(CN2CCOCC2)cc1` showed an MIC90 [1] of 2.5 µM (≈ 1.08 µg/mL) and a solubility kinetic [2] of 24 µM (≈ 10.4 µg/mL).

`Cc1cc2oc(=O)cc(-c3ccccc3)c2c(C)c1-c1ccncc1` gave an MIC90 [6] of 0.24 to 5.6 µM (≈ 0.0786 to 1.83 µg/mL).

With `Cc1cc2nc(C(=O)N3CCOCC3)cc(-c3ccccc3Cl)c2c(C)c1-c1ccncc1` the MIC90 [1] was 15 µM (≈ 6.87 µg/mL) and the solubility kinetic [2] was 145 µM (≈ 66.4 µg/mL).

With `Cc1cc2nccc(-c3ccc(Cl)cc3)c2c(C)c1-c1ccc(CN2CCOCC2)cc1` the MIC90 [1] was > 80 µM.

In the case of `Cc1cc2nccc(-c3ccnn3C)c2c(C)c1-c1ccc(CN2CCOCC2)cc1`, the MIC90 [1] is reported as 2.5 µM (≈ 1.03 µg/mL) and the solubility kinetic [2] is reported as 243 µM (≈ 100 µg/mL).

Work on `Cc1cc2nc(C(=O)NCCF)cc(-c3ccccc3Cl)c2c(C)c1-c1ccncc1` yielded an MIC90 [1] of 1.25 µM (≈ 0.542 µg/mL) and a solubility kinetic [2] of 5 µM (≈ 2.17 µg/mL).

Work on `Cc1cc2nccc(-c3ccccc3C(N)=O)c2c(C)c1-c1ccc(CN2CCOCC2)cc1` yielded an MIC90 [1] of 20 µM (≈ 9.03 µg/mL).

`Cc1cccc(C)c1-c1ccnc2cc(C)c(-c3ccc(CN4CCOCC4)cc3)c(C)c12` gave an MIC90 [1] of 5 µM (≈ 2.18 µg/mL).

`CCOC(=O)c1cc(-c2ccccc2Cl)c2c(C)c(-c3ccncc3)c(C)cc2n1` showed an MIC90 [1] of 10 µM (≈ 4.17 µg/mL) and a solubility kinetic [2] of 9 µM (≈ 3.75 µg/mL).

Compound `Cc1cc2oc(=O)cc(-c3cccc(N)c3)c2c(C)c1-c1ccc(CN2CCOCC2)cc1` has an MIC90 [6] of 0.24 to 5.6 µM (≈ 0.106 to 2.47 µg/mL).

For `Cc1cc2nccc(-c3cncnc3)c2c(C)c1-c1ccc(CN2CCOCC2)cc1`, the MIC90 [1] was 2.5 µM (≈ 1.03 µg/mL), the solubility kinetic [2] was > 230 µM and the PPB [7] was 92.8%. The PPB [8] was 95.2%, the Stability ([3]; microsomes, 1 h, 1 µM) was < 5% and the Stability ([4]; microsomes, 1 h, 1 µM) was 11.6%. The clearance [9] was 65.1 mL/min/kg.

Compound `COc1ccncc1-c1ccnc2cc(C)c(-c3ccc(CN4CCOCC4)cc3)c(C)c12` has an MIC90 [1] of 2.5 µM (≈ 1.1 µg/mL) and a solubility kinetic [2] of 169 µM (≈ 74.3 µg/mL).

Compound `Cc1cc2nc(C(=O)NC(C)C)cc(-c3ccccc3Cl)c2c(C)c1-c1ccncc1` has an MIC90 [1] of 2.5 µM (≈ 1.07 µg/mL) and a solubility kinetic [2] of 4 µM (≈ 1.72 µg/mL).

Work on `COc1ncccc1-c1ccnc2cc(C)c(-c3ccc(CN4CCOCC4)cc3)c(C)c12` yielded an MIC90 [1] of 2.5 µM (≈ 1.1 µg/mL) and a solubility kinetic [2] of 1 µM (≈ 0.44 µg/mL).

For `Cc1cc2nc(C(=O)N(C)C)cc(-c3ccccc3Cl)c2c(C)c1-c1ccncc1`, the MIC90 [1] was 20 µM (≈ 8.32 µg/mL) and the solubility kinetic [2] was 157 µM (≈ 65.3 µg/mL).

Work on `Cc1cc2nc(C(=O)NCCN(C)C)cc(-c3ccccc3Cl)c2c(C)c1-c1ccncc1` yielded an MIC90 [1] of 0.3 µM (≈ 0.138 µg/mL), a solubility kinetic [2] of 263 µM (≈ 121 µg/mL) and a remaining at 1 h, 1 µM [3] of 24%. The remaining at 1 h, 1 µM [4] was 3.2% and the IC50 (HepG2) was 16 µM.

`Cc1cc2nccc(-c3cccnc3)c2c(C)c1-c1ccc(CN2CCOCC2)cc1` showed an MIC90 [1] of 5 µM (≈ 2.05 µg/mL) and a solubility kinetic [2] of 209 µM (≈ 85.6 µg/mL).

In the case of `Cc1cc2nccc(-c3ccccc3Cl)c2c(C)c1-c1ccncc1`, the MIC90 [1] is reported as 5 µM (≈ 1.72 µg/mL) and the solubility kinetic [2] is reported as 21 µM (≈ 7.24 µg/mL).

`Cc1cc2nc(CO)cc(-c3ccccc3Cl)c2c(C)c1-c1ccncc1` gave an MIC90 [1] of 3.75 µM (≈ 1.41 µg/mL) and a solubility kinetic [2] of 32 µM (≈ 12 µg/mL).

Compound `CNC(=O)c1cc(-c2ccccc2Cl)c2c(C)c(-c3ccncc3)c(C)cc2n1` has an MIC90 [1] of 0.8 µM (≈ 0.322 µg/mL), a solubility kinetic [2] of 15 µM (≈ 6.03 µg/mL) and a remaining at 1 h, 1 µM [3] of 19.1%. It also gave a remaining at 1 h, 1 µM [4] of 19.4%, an IC50 (HepG2) of 60 µM and an Activity [10] of 4 deltalog10CFU. For the same compound, the Activity [11] was “Dose-dependent effect”, the ED99 [12] was 7.8 mg/kg and the Activity (Mus musculus) was “Non-Toxic”.

`Cc1cc2oc(=O)cc(-c3ccccc3)c2c(C)c1-c1ccc(CN2CCOCC2)cc1` gave an MIC90 [6] of 0.24 to 5.6 µM (≈ 0.102 to 2.38 µg/mL).

`Cc1cc2nccc(-c3ccccc3C(=O)O)c2c(C)c1-c1ccc(CN2CCOCC2)cc1` showed an MIC90 [1] of 40 µM (≈ 18.1 µg/mL) and a solubility kinetic [2] of 222 µM (≈ 100 µg/mL).

`Cc1cc2nccc(-c3cccc(Cl)c3)c2c(C)c1-c1ccc(CN2CCOCC2)cc1` gave an MIC90 [1] of 1.5 µM (≈ 0.664 µg/mL) and a solubility kinetic [2] of 1 µM (≈ 0.443 µg/mL).

Work on `Cc1cc2nc(C(=O)O)cc(-c3ccccc3Cl)c2c(C)c1-c1ccncc1` yielded an MIC90 [1] of 80 µM (≈ 31.1 µg/mL) and a solubility kinetic [2] of 226 µM (≈ 87.9 µg/mL).
